The record followed here is patent publication US20030232801A1, “Identification of compounds for the treatment or prevention of proliferative diseases” (priority 2001, published 2003).

One data set has as its system 6D-2 cancer cell line. The experiment in a line: Viability of 6D-2 cells on administration of MES 51151 (FIG. 3). It counts as cell-based, human. As to the method:
(§1) FIG. 3 is a graph of the effect of administration of MES 51151 on the viability of 6D-2 cells and PBMCs.
(§2) Toxicity of the transfected cells increased with increased concentration of MES 51151 administered to the cells (FIG. 3, showing the percent viable 6D-2 cells compared to control cells). MES 51151 was administered to primary peripheral blood mononuclear cells (PBMCs) to test for its effect on cell toxicity. MES 51151 was not toxic to the PBMCs (FIG. 3, showing the percent viable PBMCs compared to control cells). The EC50 of MES 51151 when administered to the 6D-2 cancer cell line was less than 100 nM, yet MES 51151 was not toxic to PBMCs even when administered at a concentration of 10 μM. Therefore, the therapeutic index of MES 51151 is at least 100, and may be even higher. […] Thus, this compound may potentially be employed for the treatment or prevention of proliferative diseases, including cancer.

The subject of data set [1] is primary peripheral blood mononuclear cells (PBMCs). Briefly: Viability of PBMCs on administration of MES 51151 (FIG. 3). It counts as cell-based. Conditions: concentration of 10 μM. As to the method:
as §1, §2

The subject of data set [2] is luciferase reporter operatively linked to HER2 5′ and 3′UTRs. The experiment in a line: HER2 UTR/luciferase reporter screening assay in stably transfected MCF7 (6D-2) cells. In kind it is cell-based, human. To be noted: HER2 5′ and 3′UTR/luciferase reporter. As to the method: The HER2 UTR/reporter nucleic acid stably transfected cell system described above was used to identify compounds that either increased or decreased the level of HER2 translation efficiency. Small molecules from a library of candidate compounds (MES library, Message Pharmaceuticals, Malvern, Pa., containing, for example, small molecules from a commercially available Nanoscale Combinatorial Synthesis Inc. (Mountain View, Calif.) library) were administered to 6D-2 cells containing the stably transfected luciferase reporter nucleic acid sequence operatively linked to HER2 5′ and 3′UTRs to identify compounds that modulate HER2 translation efficiency. Each candidate compound was administered at a concentration of 10 μM.
After 16 hours of exposure to the compound, the level of luciferase protein activity was measured in candidate compound-treated cells containing the luciferase construct only, or in cells containing the luciferase/UTRs that were not treated with the candidate compound, or are treated with the candidate compound vehicle only (control cells), and compared to activity levels in candidate compound-treated cells containing the luciferase construct with the UTRs (test cells). […]

A short description of data set [3]: Cellular toxicity, MTS cell viability, 6D-2 cells. In kind it is cell-based, human. To be noted: Homo sapiens, MCF7, MTS viability. The method, then: (§3) 6D-2 cells (MCF-7 human breast cancer cells stably transfected with luciferase linked to the 5′ and 3′UTRs of human HER2) were added to 96-well plates at 7500 cells per well in 200 μL medium and incubated for 24 hours at 100% humidity, 5% CO2, and 37° C. Compounds were diluted from DMSO stock solutions into medium and were added at various concentrations. The 6D-2 cells were incubated for 16 hours at which time the volume of medium in each well was reduced to 100 μL using a plate washer. 20 μL of MTS cell viability reagent (Promega, Madison, Wis.) was then added to each well, and the plates were incubated for 1-4 hours. A plate containing wells with 100 μL medium plus MTS reagent was prepared to determine the background reading. The plates were read on the Wallac 2 plate reader (PerkinElmer Life Science, Boston, Mass.) at 490 nm. Percent viability was calculated as (O.D. of compound treated cells−background O.D.)/(O.D. of DMSO treated cells−background O.D.)×100. MT-4 cells (adult human T-cell leukemia cells) were plated at 1.5×10^5 cells per well in 200 μL medium and incubated for at least one hour before the addition of compounds. The cells were incubated for 5 days at 100% humidity, 5% CO2, and 37° C. Cell viability was determined as described for 6D-2 cells.
(§4) Compounds of the invention containing a pyrrolidine substituent were tested for toxicity to cancerous and non-cancerous cells. 6D-2 cellular activity is representative of potency as an antitumor agent. MT-4 cellular activity is representative of general toxicity. A high IC50 for MT-4 cells and a low IC50 for 6D-2 cells is indicative of a compound of potential therapeutic use in treating or preventing proliferative diseases, such as cancer.

Data set [4] deals with MT-4 cells (adult human T-cell leukemia cells). The experiment in a line: Cellular toxicity, MTS cell viability, MT-4 cells. It counts as cell-based. To be noted: Homo sapiens, MT4, 120 h, 5 day, MTS viability. As to the method:
as §3, §4

Each structure is given as a SMILES string.

`CC(=O)Nc1ccc(NC2=C(N3CCCC3)C(=O)c3ccccc3C2=O)cc1` [Example 2]: the Therapeutic index result in the data set with 6D-2 cancer cell line (6D-2 EC50 versus non-toxic concentration in PBMCs) was “at least 100”. For the same molecule, in the data set with 6D-2 cancer cell line (Homo sapiens, 6D-2 cells, toxicity (percent viable cells compared to control), read-out: EC50 when administered to the 6D-2 cancer cell line), the EC50 is below 100 nM. Also, the “Toxicity to PBMCs” value in data set [1] is “not toxic”. Also, the Luciferase activity result in data set [2] was “reduced luciferase activity through toxicity”. In addition, the values for the IC50 in data set [3] and in data set [4] were 250 nM and 80 nM, respectively.
